Data reported in publication PMC4618635 (Pharmacology Research & Perspectives, 2015).

Legend:
Assay type in all cases: cell-based
hERG potassium channel [1] = molecular target: hERG potassium channel (Homo sapiens, UniProt Q12809, Y652A); experiment: whole-cell patch clamp, CHO cells transiently expressing Y652A hERG
hERG potassium channel [2] = molecular target: hERG potassium channel (Homo sapiens, UniProt Q12809, F656A); experiment: whole-cell patch clamp, CHO cells transiently expressing F656A hERG, high [K+]
hERG potassium channel (Homo sapiens, UniProt Q12809, F656A), sequence (Q12809 whole entry F656A): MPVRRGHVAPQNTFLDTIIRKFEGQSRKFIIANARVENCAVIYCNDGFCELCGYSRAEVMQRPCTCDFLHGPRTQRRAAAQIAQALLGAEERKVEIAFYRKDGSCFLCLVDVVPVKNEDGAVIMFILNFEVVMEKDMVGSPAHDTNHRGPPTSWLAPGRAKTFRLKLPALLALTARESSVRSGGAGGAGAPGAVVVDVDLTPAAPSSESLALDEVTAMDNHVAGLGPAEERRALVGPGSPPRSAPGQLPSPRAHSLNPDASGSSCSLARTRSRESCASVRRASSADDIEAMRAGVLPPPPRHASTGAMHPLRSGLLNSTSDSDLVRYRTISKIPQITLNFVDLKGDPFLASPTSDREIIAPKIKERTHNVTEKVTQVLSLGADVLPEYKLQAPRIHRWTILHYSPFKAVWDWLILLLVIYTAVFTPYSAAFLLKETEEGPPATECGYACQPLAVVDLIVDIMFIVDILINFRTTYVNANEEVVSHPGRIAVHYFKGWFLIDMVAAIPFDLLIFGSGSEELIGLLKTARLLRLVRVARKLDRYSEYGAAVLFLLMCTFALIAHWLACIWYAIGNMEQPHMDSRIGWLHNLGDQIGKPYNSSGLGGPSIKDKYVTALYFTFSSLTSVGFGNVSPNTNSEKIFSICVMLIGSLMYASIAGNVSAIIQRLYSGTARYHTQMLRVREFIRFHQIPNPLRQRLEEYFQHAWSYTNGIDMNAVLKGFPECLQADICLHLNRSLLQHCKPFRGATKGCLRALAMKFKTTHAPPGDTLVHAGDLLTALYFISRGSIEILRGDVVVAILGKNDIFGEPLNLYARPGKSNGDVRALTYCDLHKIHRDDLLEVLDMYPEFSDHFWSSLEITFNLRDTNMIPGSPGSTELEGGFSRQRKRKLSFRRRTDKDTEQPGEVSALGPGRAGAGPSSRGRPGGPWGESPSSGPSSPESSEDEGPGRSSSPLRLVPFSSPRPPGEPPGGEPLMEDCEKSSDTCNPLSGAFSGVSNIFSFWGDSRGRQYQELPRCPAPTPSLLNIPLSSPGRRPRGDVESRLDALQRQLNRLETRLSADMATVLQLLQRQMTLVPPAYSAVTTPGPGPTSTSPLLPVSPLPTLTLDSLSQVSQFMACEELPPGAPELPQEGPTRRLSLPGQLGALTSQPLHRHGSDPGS

hERG potassium channel [3] = molecular target: hERG potassium channel (Homo sapiens, UniProt Q12809); experiment: whole-cell patch clamp, HEK cells stably expressing hERG, tail current block
hERG potassium channel (Homo sapiens, UniProt Q12809), sequence (Q12809 whole entry): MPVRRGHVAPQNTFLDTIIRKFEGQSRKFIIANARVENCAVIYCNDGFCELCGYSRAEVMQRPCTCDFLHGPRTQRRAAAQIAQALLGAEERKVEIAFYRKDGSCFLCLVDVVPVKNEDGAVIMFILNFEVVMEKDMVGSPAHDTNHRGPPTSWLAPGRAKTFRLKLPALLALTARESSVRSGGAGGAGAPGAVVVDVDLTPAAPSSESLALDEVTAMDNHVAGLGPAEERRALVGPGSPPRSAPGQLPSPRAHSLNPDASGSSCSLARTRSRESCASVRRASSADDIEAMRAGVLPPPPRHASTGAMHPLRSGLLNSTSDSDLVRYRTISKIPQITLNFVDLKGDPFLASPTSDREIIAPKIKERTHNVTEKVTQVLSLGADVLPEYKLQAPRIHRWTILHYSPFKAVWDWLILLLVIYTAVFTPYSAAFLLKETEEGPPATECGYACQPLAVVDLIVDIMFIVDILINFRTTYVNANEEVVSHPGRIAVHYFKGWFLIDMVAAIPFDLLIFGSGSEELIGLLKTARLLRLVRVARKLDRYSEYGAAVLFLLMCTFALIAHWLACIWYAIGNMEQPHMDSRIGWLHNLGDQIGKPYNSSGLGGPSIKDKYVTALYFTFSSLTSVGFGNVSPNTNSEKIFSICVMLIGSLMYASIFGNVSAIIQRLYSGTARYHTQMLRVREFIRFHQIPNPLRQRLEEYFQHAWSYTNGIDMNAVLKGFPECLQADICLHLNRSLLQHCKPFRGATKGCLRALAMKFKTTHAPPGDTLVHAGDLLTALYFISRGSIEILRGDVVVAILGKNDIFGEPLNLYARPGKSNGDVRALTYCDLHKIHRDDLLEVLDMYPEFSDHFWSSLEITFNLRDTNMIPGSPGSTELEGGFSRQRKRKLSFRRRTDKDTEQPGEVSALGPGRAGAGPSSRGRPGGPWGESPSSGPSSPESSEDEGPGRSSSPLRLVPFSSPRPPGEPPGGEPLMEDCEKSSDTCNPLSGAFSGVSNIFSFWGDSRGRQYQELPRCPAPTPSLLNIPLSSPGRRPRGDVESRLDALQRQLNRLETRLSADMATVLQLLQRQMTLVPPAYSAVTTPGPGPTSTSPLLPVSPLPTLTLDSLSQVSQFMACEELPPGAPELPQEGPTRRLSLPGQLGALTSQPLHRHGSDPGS

hERG potassium channel (Homo sapiens, UniProt Q12809, Y652A), sequence (Q12809 whole entry Y652A): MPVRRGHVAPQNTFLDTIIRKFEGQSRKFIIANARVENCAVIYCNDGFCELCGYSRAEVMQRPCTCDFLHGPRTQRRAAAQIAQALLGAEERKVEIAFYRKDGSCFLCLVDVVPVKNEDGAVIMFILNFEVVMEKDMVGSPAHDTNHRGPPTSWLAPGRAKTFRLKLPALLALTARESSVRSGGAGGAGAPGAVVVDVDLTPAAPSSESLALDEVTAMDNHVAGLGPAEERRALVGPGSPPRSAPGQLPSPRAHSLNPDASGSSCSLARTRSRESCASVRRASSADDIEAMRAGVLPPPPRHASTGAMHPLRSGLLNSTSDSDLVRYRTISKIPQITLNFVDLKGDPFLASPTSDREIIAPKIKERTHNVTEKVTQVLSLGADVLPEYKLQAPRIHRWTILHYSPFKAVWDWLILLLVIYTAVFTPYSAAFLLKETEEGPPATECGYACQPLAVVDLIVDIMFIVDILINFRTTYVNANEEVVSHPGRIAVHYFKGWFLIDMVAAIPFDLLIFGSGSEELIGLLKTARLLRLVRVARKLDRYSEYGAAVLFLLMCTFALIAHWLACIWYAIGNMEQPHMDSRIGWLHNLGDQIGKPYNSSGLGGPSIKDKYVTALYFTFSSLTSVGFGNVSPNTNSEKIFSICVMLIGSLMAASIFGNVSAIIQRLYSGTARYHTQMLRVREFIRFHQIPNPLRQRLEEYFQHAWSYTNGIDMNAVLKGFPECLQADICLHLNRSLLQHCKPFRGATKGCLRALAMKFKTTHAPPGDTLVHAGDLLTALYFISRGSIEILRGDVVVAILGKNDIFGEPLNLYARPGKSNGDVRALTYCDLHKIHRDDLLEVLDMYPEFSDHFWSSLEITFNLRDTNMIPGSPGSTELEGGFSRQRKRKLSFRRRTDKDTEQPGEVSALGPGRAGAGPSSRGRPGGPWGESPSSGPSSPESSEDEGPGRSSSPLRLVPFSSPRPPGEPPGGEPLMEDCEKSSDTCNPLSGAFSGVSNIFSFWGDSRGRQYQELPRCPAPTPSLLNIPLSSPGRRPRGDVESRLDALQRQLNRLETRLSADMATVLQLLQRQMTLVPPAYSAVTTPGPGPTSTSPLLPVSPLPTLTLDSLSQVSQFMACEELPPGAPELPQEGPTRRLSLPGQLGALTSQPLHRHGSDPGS

SMILES: Cc1cccc(C)c1OCC(C)N (stereo not drawn) [mexiletine]
- IC50 (hERG potassium channel [1]): 41.6 ± 6.6 µM
- IC50 (hERG potassium channel [2]): 111 ± 1.8 µM
- IC50 (hERG potassium channel [3]): 3.7 ± 0.7 µM
